# Measured values published in patent publication US20100016232A1, “Treatment Of Inflammatory Diseases With Mammal Beta Defensins” (Novozymes A/S, priority 2008, published 2010).
# Where no end group is shown, it is not given here.
# Columns and labels:
# [1] = test system: PBMC; assay: PBMC viability, Alamar Blue; format: cell-based, human
# Experimental: (§1) Peripheral blood was drawn from healthy volunteers (with approval from the relevant ethical committee in Denmark). Heparinized blood was diluted 1/1 v/v with RPMI and were subjected to Ficoll density centrifugation within 2 h of drawing. Plasma was collected from the top from individual donors and was kept on ice until it was used at 2% in the culture medium (autologous culture medium). Isolated PBMC were resuspended in autologous culture medium and seeded in 96-well culture plates with 255.000 cells per well in a total of 200 μl. […] The concentrations used for stimulation were optimized on 3 different donors in initial experiments, for LPS two different concentrations were used to be sure to be on a cytokine level that is possible to modulate. In some experiments PBMC were treated with Dexamethason and Indomethacin alone and together with LPS or LTA as a control on downregulation of inflammatory cytokines. The supernatants were collected after incubation at 37° C. for 24 hours, and stored at −80° C. until cytokine measurement. Viability was measured by Alamar Blue (Biosource, DALL 1100) in all experiments and in some cases also by MTS (Promega) according to manufacturer's instruction and was in some experiments also judged by counting of the cells by a Nucleocounter.
# [2] = test system: IL-10 secretion from PBMC; assay: IL-10 secretion from PBMC, ELISA; format: cell-based, human
# Experimental: as §1
# (§2) Cytokine production in supernatants was measured by flow cytometry with a human inflammation cytometric bead array (CBA) according to manufacturer's instructions (BD) on a FACSarray flow cytometer. The following cytokines were measured: IL-8, IL-1β, IL-10, TNF, IL-12 p70, IL-6. In some experiments, cytokines were measured by ELISA kits from R&D systems (IL-10, TNF-α, IL-1β) according to the manufacturer' instruction.
# (§3) In Tables 6, 7 and 8, supernatants from another donor were analysed for cytokines by ELISA instead of by a cytometric bead array by flowcytometry and here the same were observed, although the sensitivity of the assay is lower and the detection limit much higher and therefore the effects were not as significant.
# [3] = test system: IL-1β secretion from PBMC; assay: IL-1β secretion from PBMC, ELISA; format: cell-based, human
# Experimental: as §1, §2, §3
# [4] = test system: TNF production in supernatants from immature dendritic cells; assay: TNF production, immature dendritic cells (MUTZ-3 derived); format: cell-based, human
# Experimental: To generate a dendritoid cell line, the human myeloid leukaemia cell lines MUTZ-3 (1×10^5 cells/ml) was differentiated for 7 days in the presence of rhGM-CSF (150 ng/ml) and rhIL-4 (50 ng/ml) into immature DCs. Medium was exchanged every 2-3 days.
# as §2
# [5] = test system: IL-23, human PBMC; assay: IL-23 in supernatants of human PBMC, ELISA; format: cell-based
# Experimental: as §1, with “Nucleocounter. […]” for “Nucleocounter.”
# Cell culture supernatants were collected and stored at −80° C. Amounts of IL-23 was measured by standard sandwich ELISA using commercially available antibodies and standards according to the manufacturer's protocols (eBioscience).
# [6] = test system: DSS-induced colitis in the mouse; assay: 10-day DSS-induced colitis, colon histological score (Example 5); format: in vivo; conditions: day 10
# Text: Animals were divided into 5 experimental groups.
# Their colons were removed and their length and weight measured after exclusion of the caecum.
# Two sections (proximal and distal) of colon were taken from each animal and preserved in neutral buffered formalin for subsequent histological analysis (haematoxylin and eosin staining) according to the following scoring system:
# Two sections (proximal and distal) of colon were taken from each animal, processed for histological analysis (haematoxylin and eosin staining) and scored by a blind observer according to the histological scoring system described above.
substance,measurement,setting,value
"hBD2: human beta defensin 2, SEQ ID NO:2; produced recombinantly in E. coli (Example 1); hBD2 of Tables 16-18 was prepared by chemical synthesis (GIGDPVTCLKSGAICHPVFCPRRYKQIGTCGLPGTKCCKKP; ends and bridges not checked; cysteine pairing not given here; listed as Homo sapiens)","Viability, Alamar Blue","[1]; LPS 0.6 ng/ml, hBD2 1 μg/ml",4230588 RFU
same,"Viability, Alamar Blue","[1]; LPS 0.6 ng/ml, hBD2 10 μg/ml",4664362 RFU
same,"Viability, Alamar Blue","[1]; LPS 0.6 ng/ml, hBD2 100 μg/ml",4831188 RFU
same,"Viability, Alamar Blue","[1]; LPS 20 ng/ml, hBD2 1 μg/ml",4561739 RFU
same,"Viability, Alamar Blue","[1]; LPS 20 ng/ml, hBD2 10 μg/ml",4623818 RFU
same,"Viability, Alamar Blue","[1]; LPS 20 ng/ml, hBD2 100 μg/ml",4765256 RFU
same,"Viability, Alamar Blue","[1]; LTA 1.25 μg/ml, hBD2 1 μg/ml",4148294 RFU
same,"Viability, Alamar Blue","[1]; LTA 1.25 μg/ml, hBD2 10 μg/ml",4677870 RFU
same,"Viability, Alamar Blue","[1]; LTA 1.25 μg/ml, hBD2 100 μg/ml",4664185 RFU
same,"Viability, Alamar Blue","[1]; Medium, hBD2 1 μg/ml",4064143 RFU
same,"Viability, Alamar Blue","[1]; Medium, hBD2 10 μg/ml",3683369 RFU
same,"Viability, Alamar Blue","[1]; Medium, hBD2 100 μg/ml",3950053 RFU
same,cytotoxic effect on the cells,"[1]; human PBMC, MTS and Alamar Blue, Tables 4 and 5",no cytotoxic effect
same,IL-10,"[2]; LPS 0.6 ng/ml, hBD2 10 μg/ml",0.04 ng/mL
same,IL-10,"[2]; LPS 0.6 ng/ml, hBD2 100 μg/ml",0.14 ng/mL
same,IL-10,"[2]; LPS 20 ng/ml, hBD2 10 μg/ml",0.34 ng/mL
same,IL-10,"[2]; LPS 20 ng/ml, hBD2 100 μg/ml",0.46 ng/mL
same,IL-1β,"[3]; LPS 0.6 ng/ml, hBD2 1 μg/ml",0.237 ng/mL
same,IL-1β,"[3]; LPS 0.6 ng/ml, hBD2 10 μg/ml",0.268 ng/mL
same,IL-1β,"[3]; LPS 0.6 ng/ml, hBD2 100 μg/ml",0.275 ng/mL
same,IL-1β,"[3]; LPS 20 ng/ml, hBD2 1 μg/ml",0.638 ng/mL
same,IL-1β,"[3]; LPS 20 ng/ml, hBD2 10 μg/ml",0.354 ng/mL
same,IL-1β,"[3]; LPS 20 ng/ml, hBD2 100 μg/ml",0.395 ng/mL
same,IL-1β,"[3]; LTA 1.25 μg/ml, hBD2 1 μg/ml",0.224 ng/mL
same,IL-1β,"[3]; LTA 1.25 μg/ml, hBD2 10 μg/ml",0.193 ng/mL
same,IL-1β,"[3]; LTA 1.25 μg/ml, hBD2 100 μg/ml",0.281 ng/mL
same,TNF,"[4]; LPS 1.5 μg/ml, hBD2 1 μg/ml",18.04 pg/mL
same,TNF,"[4]; LPS 1.5 μg/ml, hBD2 10 μg/ml",13.8 pg/mL
same,TNF,"[4]; LPS 1.5 μg/ml, hBD2 100 μg/ml",7.66 pg/mL
same,TNF,"[4]; LTA 1.5 μg/ml, hBD2 1 μg/ml",0.00 pg/mL
same,TNF,"[4]; LTA 1.5 μg/ml, hBD2 10 μg/ml",2.76 pg/mL
same,TNF,"[4]; LTA 1.5 μg/ml, hBD2 100 μg/ml",5.22 pg/mL
same,TNF,"[4]; Medium, hBD2 1 μg/ml",4.64 pg/mL
same,TNF,"[4]; Medium, hBD2 10 μg/ml",1.89 pg/mL
same,TNF,"[4]; Medium, hBD2 100 μg/ml",0.00 pg/mL
same,IL-23,"[5]; Control (medium), treatment 1 μg/ml",218 pg/mL
same,IL-23,"[5]; Control (medium), treatment 10 μg/ml",211 pg/mL
same,IL-23,"[5]; Control (medium), treatment 100 μg/ml",207 pg/mL
same,IL-23,"[5]; LPS 0.6 ng/ml, treatment 1 μg/ml",338 pg/mL
same,IL-23,"[5]; LPS 0.6 ng/ml, treatment 10 μg/ml",462 pg/mL
same,IL-23,"[5]; LPS 0.6 ng/ml, treatment 100 μg/ml",484 pg/mL
same,IL-23,"[5]; LPS 20 ng/ml, treatment 1 μg/ml",263 pg/mL
same,IL-23,"[5]; LPS 20 ng/ml, treatment 10 μg/ml",295 pg/mL
same,IL-23,"[5]; LPS 20 ng/ml, treatment 100 μg/ml",488 pg/mL
same,IL-23,"[5]; LTA 5 μg/ml, treatment 1 μg/ml",383 pg/mL
same,IL-23,"[5]; LTA 5 μg/ml, treatment 10 μg/ml",438 pg/mL
same,IL-23,"[5]; LTA 5 μg/ml, treatment 100 μg/ml",810 pg/mL
same,Histology Score Distal Colon,[6]; 0.1 mg/kg i.v. daily,3.67
same,Histology Score Distal Colon,[6]; 1 mg/kg i.v. daily,4.13
same,Histology Score Distal Colon,[6]; 10 mg/kg i.v. daily,4.78
